Data taken from publication PMC12172621 (ACS chemical neuroscience, 2024).
Values joined by “and” are separate entries in the source; they are usually repeats but may differ in a detail not shown here. Equal entries are not always repeated. Where two headings read alike, the source gives them in different places.

Legend:
[1] = system: PK-resistant PrP (PrP^Sc) in ScN2a-RML cells; type: cell-based, mouse; conditions: read-out: EC50, effective concentration for 50% reduction of PrP^Sc levels in ScN2a-RML cells
[2] = system: total PrP (PrP^C) in uninfected N2a cells; type: cell-based, mouse
[3] = system: cultured hippocampal neurons exposed to purified RML PrP^Sc; type: cell-based
[4] = target: sigma-2 receptor (σ2R, Tmem97) (Homo sapiens, UniProt Q5BJF2); assay: biochemical; type: binding
[5] = cited from earlier work
in vitro = conditions: mouse
[6] = system: PK-resistant PrP in Hrh1^0/0 cells
[7] = system: PK-resistant PrP in Rosa26-targeted ScN2a cells; type: cell-based, mouse
[8] = system: PK-resistant PrP in Sigmar1 + Tmem97 KO cells; type: cell-based, mouse
[9] = target: sigma-1 receptor (σ1R, Sigmar1) (Homo sapiens, UniProt Q99720); assay: biochemical; type: binding
[10] = system: seeding activity of RML prions on recombinant bank vole PrP; type: biochemical; conditions: 2× the EC50 (79 μM)
[11] = system: PK-resistant PrP in N2a cells chronically infected with 22L prions; type: cell-based, mouse

Chain of sigma-1 receptor (σ1R, Sigmar1) (Q99720 whole entry, species assumed): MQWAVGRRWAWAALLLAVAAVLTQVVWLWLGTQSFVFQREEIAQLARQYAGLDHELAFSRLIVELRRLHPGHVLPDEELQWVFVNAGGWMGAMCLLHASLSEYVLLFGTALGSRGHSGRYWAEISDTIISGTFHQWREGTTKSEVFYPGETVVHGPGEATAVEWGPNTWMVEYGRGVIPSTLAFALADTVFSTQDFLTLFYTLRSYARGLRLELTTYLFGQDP
Chain of sigma-2 receptor (σ2R, Tmem97) (Q5BJF2 whole entry, species assumed): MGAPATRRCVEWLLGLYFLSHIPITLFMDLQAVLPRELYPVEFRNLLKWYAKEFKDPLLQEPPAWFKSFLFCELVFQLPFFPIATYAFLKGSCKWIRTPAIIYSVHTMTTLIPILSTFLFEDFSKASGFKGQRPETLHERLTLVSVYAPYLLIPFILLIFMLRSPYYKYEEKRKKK

COc1cccc2c1CCCC2CCCN1CCN(C2CCCCC2)CC1 (stereo not drawn) [PB-28]
EC50 [1]: 5.1 µM
Levels of total PrP compared to DMSO treatment [2]: 85.3 ± 3.4%
CC50 (ScN2a-RML cells): 7.8 µM
[SRA]min, minimum concentration capable of preventing hippocampal spine retraction [3]: 0.1 µM

COc1ccc(CCN2CCN(CCCc3ccccc3)CC2)cc1OC [SA 4503, Cutamesine]
EC50 [1]: 27.2 µM
Ki ([4]; read-out: Kiσ2R): 0.0175 µM
Tolerability in phase II trial ([5]; ischemic stroke): well tolerated
CC50 (ScN2a-RML cells): > 50 µM

CN(C)CC1CCOC1(c1ccccc1)c1ccccc1 (stereo not drawn) [ANAVEX2–73, Blarcamesine]
Ki [4]: 2.03 µM
CC50 (in vitro): > 50 µM
Tolerability in phase II trials ([5]; Alzheimer’s and Parkinson’s diseases): well tolerated
Levels of PK-resistant PrP relative to DMSO-treated controls [6]: 25.7 ± 6.2%
Levels of PK-resistant PrP relative to DMSO-treated controls [7]: 70.4 ± 1.1% and 42.6 ± 1.7%
Levels of PK-resistant PrP relative to DMSO-treated controls ([8]; 39.5 μM): 57.9 ± 9.0%
TI, therapeutic index (LC50/EC50) (ScN2a-RML cells; mouse): >1.3
Ki [9]: 0.442 µM
Selectivity for σ1R (σ1R/σ2R) [9]: σ1R (4.5 x)
Lag phase in RT-QuIC [10]: slight increase in the lag phase

CN1CCN(CCc2ccc(Cl)c(Cl)c2)CC1 [BD1063]
EC50 [1]: 12.3 µM
Ki ([4]; read-out: Kiσ2R): 0.123 µM
Levels of total PrP compared to DMSO treatment ([2]; 12.3 μM): 85.8 ± 4.4%
Levels of PK-resistant PrP relative to DMSO treatment [11]: 63.3 ± 1.2%
Levels of PK-resistant PrP relative to DMSO-treated controls [6]: 42.6 ± 6.7%
Levels of PK-resistant PrP relative to DMSO-treated controls [8]: 60.3 ± 4.0%
CC50 (ScN2a-RML cells): > 50 µM
TI, therapeutic index (LC50/EC50) (ScN2a-RML cells): >4.1
Mean number of dendritic spines/μm [3]: 0.69 ± 0.03 spines/μm and 0.63 ± 0.03 spines/μm
[SRA]min, minimum concentration capable of preventing hippocampal spine retraction [3]: 1 µM
Selectivity for σ1R (σ1R/σ2R) [9]: σ1R (45.7 x)
Ki ([9]; read-out: Kiσ1R): 0.0027 µM

CCCCc1oc2ccccc2c1C(=O)c1cc(I)c(OCCN(CC)CC)c(I)c1 [amiodarone]
Ki [4]: 0.171 µM

CN(C)CCN(C)CCc1ccc(Cl)c(Cl)c1 [BD1047]
EC50 [1]: 19 µM
Ki ([4]; read-out: Kiσ2R): 0.013 µM
Levels of total PrP compared to DMSO treatment ([2]; 19 μM): 94.9 ± 0.9%
CC50 (ScN2a-RML cells): > 25 µM
Mean number of dendritic spines/μm [3]: 0.74 ± 0.02 spines/μm and 0.78 ± 0.04 spines/μm
[SRA]min, minimum concentration capable of preventing hippocampal spine retraction [3]: 0.5 µM

CCCN1CCC=C(c2cc(-c3ccc(C)cc3)no2)C1 [PD 144418]
EC50 [1]: 5.2 µM
Ki ([4]; read-out: Kiσ2R): 0.351 µM
Levels of total PrP compared to DMSO treatment [2]: 97.5 ± 4.8%
EC50 ([11]; read-out: EC50 against 22L prions): 12.6 µM
Levels of PK-resistant PrP relative to DMSO-treated controls [7]: 81.1 ± 5.0%
Levels of PK-resistant PrP relative to DMSO-treated controls [8]: 56.6 ± 5.8%
CC50 (ScN2a-RML cells): > 22 µM
TI, therapeutic index (LC50/EC50) (ScN2a-RML cells): >4.2
[SRA]min, minimum concentration capable of preventing hippocampal spine retraction [3]: 10 µM
Selectivity for σ1R (σ1R/σ2R) [9]: σ1R (319.1 x)
Ki ([9]; read-out: Kiσ1R): 0.0011 µM

Cc1ccccc1NC(=N)Nc1ccccc1C [DTG, ditolylguanidine]
CC50 (in vitro): > 50 µM

CC(C)=CCN1CC[C@]2(C)c3cc(O)ccc3C[C@H]1[C@H]2C [(+)-pentazocine]
CC50 (in vitro): > 50 µM

O=C(CCCN1CCC(O)(c2ccc(Cl)cc2)CC1)c1ccc(F)cc1 [haloperidol]
Levels of total PrP compared to DMSO treatment [2]: 92.0 ± 3.5%
Mean number of dendritic spines/μm [3]: 0.85 ± 0.03 spines/μm and 0.73 ± 0.04 spines/μm

OC(CCCN1CCN(c2ncc(F)cn2)CC1)c1ccc(F)cc1 (stereo not drawn) [BMY-14802]
CC50 (in vitro): > 50 µM

C[C@@H]1CN(CCCn2c3ccccc3c3ccccc32)C[C@H](C)N1 [rimcazole]
Ki [4]: 0.0496 µM
CC50 (in vitro): 10 µM
Mean number of dendritic spines/μm [3]: 0.86 ± 0.02 spines/μm and 0.82 ± 0.02 spines/μm
[SRA]min, minimum concentration capable of preventing hippocampal spine retraction [3]: 0.5 µM
